According to the supplement of paper PMC11061612:

How the values were obtained:
[1] = system: BB49-HNC (Head and Neck Carcinoma); experiment: Bliss excess, mean over the matrix (fraction); higher = more synergy
Summary of the method: (§1)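 Cell lines in DMEM/F12 or RPMI with 10% FBS were plated in 1536-well plates, held 24 hours at 37°C, 5% CO2, then given two-drug dose matrices for 72 hours (DMSO typically 0.2%). Viability was read by CellTiter-Glo 2.0 luminescence and scaled as inhibition from 0 (vehicle wells) to 1 (blank wells). Combination Emax is the second-highest inhibition in the matrix; Bliss excess is observed combination effect minus expected EA + EB − EA·EB, EA and EB being single-agent effects.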

[2] = system: NB(TU)1-10 (Neuroblastoma); experiment: as above
Summary of the method: as §1

[3] = system: NCI-H211 (Small Cell Lung Carcinoma); experiment: as above
Summary of the method: as §1

[4] = system: BB49-HNC (Head and Neck Carcinoma); experiment: combination Emax (second highest fraction inhibited in the dose matrix, 72 h); higher = more inhibition; extreme values may be limits of the assay
Summary of the method: as §1

[5] = system: DSH1 (Bladder Carcinoma); experiment: as above
Summary of the method: as §1

[6] = system: JiyoyeP-2003 (Burkitt's Lymphoma); experiment: as above
Summary of the method: as §1

[7] = system: NB(TU)1-10 (Neuroblastoma); experiment: as above
Summary of the method: as §1

[8] = system: NCI-H211 (Small Cell Lung Carcinoma); experiment: as above
Summary of the method: as §1
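Wherever Bliss excess, mean over the matrix is given: after 72 h of two-drug dosing.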

Row | Compound | Bliss excess [1] | Bliss excess [2] | Bliss excess [3] | combination Emax [4] | combination Emax [5] | combination Emax [6] | combination Emax [7] | combination Emax [8]
1 | C=CCn1c(=O)c2cnc(Nc3ccc(N4CCN(C)CC4)cc3)nc2n1-c1cccc(C(C)(C)O)n1 [AZD1775] + C1CN(CCC1(C(=O)N[C@@H](CCO)C2=CC=C(C=C2)Cl)N)C3=NC=NC4=C3C=CN4 [Capivasertib] (first compound max 3 µM, partner max 3 µM) | -0.0204 | -0.0584 | -0.0643 | 0.936 | 0.789 | 0.931 | 0.583 | 0.901
2 | COc1cccc(OCCCN)c1-c1cc(Nc2cnc(C#N)cn2)n[nH]1 [Prexasertib] + C=CCn1c(=O)c2cnc(Nc3ccc(N4CCN(C)CC4)cc3)nc2n1-c1cccc(C(C)(C)O)n1 [AZD1775] (first compound max 1 µM, partner max 1 µM) |  | -0.0039 |  |  | 0.84 | 0.984 | 0.965 | 
3 | CCN(CCO)CCCOc1ccc2c(Nc3cc(CC(=O)Nc4cccc(F)c4)[nH]n3)ncnc2c1 [AZD2811] + C=CCn1c(=O)c2cnc(Nc3ccc(N4CCN(C)CC4)cc3)nc2n1-c1cccc(C(C)(C)O)n1 [AZD1775] (first compound max 1 µM, partner max 1 µM) |  | 0.0337 |  |  | 0.324 | 0.926 | 0.881 | 
4 | CN(C)CCCOc1ccc(-c2ccc3ncc4c(c3c2)n(C2CCOCC2)c(=O)n4C)cn1 [AZD0156] + O=C(c1cc(Cc2n[nH]c(=O)c3ccccc23)ccc1F)N1CCN(C(=O)C2CC2)CC1 [Olaparib] (first compound max 3 µM, partner max 3 µM) | 0.165 | -0.037 | 0.0397 | 0.598 | 0.387 | 0.311 | 0.356 | 0.598
